Source: patent publication US6743816B2, “Imidazole derivatives with anti-inflammatory activity” (J. Uriach & Cia S.A., priority 2000, dated 2004)
Where a name gives a salt, the structure may show the parent alone.

Legend:
[1] = target: T1, human COX-1 (U-937 from human histiocitic lymphoma) (Homo sapiens, UniProt P23219); experiment: Inhibition of COX-1 activity in human cell line (PGE2 production after arachidonic acid); assay type: cell-based; conditions: 0.1 μM test compound; U-937 cells; PGE2 after 10 μM arachidonic acid
T1 construct: cell lines expressing human COX-1 (U-937 from human histiocitic lymphoma); endogenous in cells; host or cells: U-937 (human histiocytic lymphoma)
Procedure: (§1) Inhibition of Cyclooxygenase-1 (COX-1) and Cyclooxygenase-2 (COX-2) Activity in Human Cell Lines
The inhibition of COX-1 and COX-2 is determined by assessing the PGE2 production after stimulation with arachidonic acid in cell lines expressing human COX-1 (U-937 from human histiocitic lymphoma) and human COX-2 (143.98.2 from human osteosarcoma), respectively.
(§2) The osteosarcoma-derived cells were cultured in 1 mL of DMEM culture medium supplemented with 10% fetal calf serum, in 24-well multidishes until confluence. U-937 cells were cultured in RPMI medium supplemented with 10% fetal calf serum in flasks.
(§3) To evaluate COX-2 activity, the medium was removed and replaced with Hepes-buffered saline solution (HBSS) without Ca^2+/Mg^2+ (2×10^5 cells/well). To evaluate COX-1 activity, the medium was removed and U-937 cells were resuspended to a final density of 3×10^6 cells/mL in HBSS without Ca^2+/Mg^2+ (1 mL/well, in 24-well multidishes). 1 μL of a solution of the test compound dissolved in DMSO or vehicle was added, and the samples were incubated for 15 min at 37° C. (5% CO2 and 95% humidity). Arachidonic acid was added (final concentration: 10 μM) and the samples were incubated for 10 min more. Next the reactions were quenched by adding indomethacin (8 mM, 30 μL). The amount of PGE2 in the supernatant was determined by specific enzymatic immunoassay (Kit Prostaglandin E2, Biotrak EIA system RPN222, Amersham Pharmacia Biotech). All the assays were performed in triplicate.

[2] = target: T2, human COX-2 (143.98.2 from human osteosarcoma) (Homo sapiens, UniProt P35354); experiment: Inhibition of COX-2 activity in human cell line (PGE2 production after arachidonic acid); assay type: cell-based; conditions: 0.1 μM test compound; 143.98.2 osteosarcoma cells; PGE2 after 10 μM arachidonic acid
T2 construct: human COX-2 (143.98.2 from human osteosarcoma); endogenous in cells; host or cells: 143.98.2 (human osteosarcoma)
T2 sequence (P35354 18-604): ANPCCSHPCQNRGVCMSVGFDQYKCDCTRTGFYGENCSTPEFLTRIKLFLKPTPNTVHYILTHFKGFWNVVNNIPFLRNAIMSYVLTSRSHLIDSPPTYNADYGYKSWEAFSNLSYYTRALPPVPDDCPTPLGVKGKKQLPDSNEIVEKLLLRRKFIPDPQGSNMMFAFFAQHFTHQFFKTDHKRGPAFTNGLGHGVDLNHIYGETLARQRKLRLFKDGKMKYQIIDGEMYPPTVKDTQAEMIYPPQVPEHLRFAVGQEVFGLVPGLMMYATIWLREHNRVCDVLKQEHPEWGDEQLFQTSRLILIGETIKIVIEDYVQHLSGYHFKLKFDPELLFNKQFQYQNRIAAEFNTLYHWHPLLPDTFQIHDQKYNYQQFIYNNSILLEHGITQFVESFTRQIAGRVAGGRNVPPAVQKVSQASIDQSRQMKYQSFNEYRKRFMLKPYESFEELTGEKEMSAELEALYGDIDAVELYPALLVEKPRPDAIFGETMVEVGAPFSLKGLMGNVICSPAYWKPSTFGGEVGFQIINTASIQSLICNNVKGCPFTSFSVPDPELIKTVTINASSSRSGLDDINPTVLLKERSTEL
Procedure: as §1, §2
as §3, with “(5% CO2 and 95% humidity).” left out

T1 sequence (P23219 24-599): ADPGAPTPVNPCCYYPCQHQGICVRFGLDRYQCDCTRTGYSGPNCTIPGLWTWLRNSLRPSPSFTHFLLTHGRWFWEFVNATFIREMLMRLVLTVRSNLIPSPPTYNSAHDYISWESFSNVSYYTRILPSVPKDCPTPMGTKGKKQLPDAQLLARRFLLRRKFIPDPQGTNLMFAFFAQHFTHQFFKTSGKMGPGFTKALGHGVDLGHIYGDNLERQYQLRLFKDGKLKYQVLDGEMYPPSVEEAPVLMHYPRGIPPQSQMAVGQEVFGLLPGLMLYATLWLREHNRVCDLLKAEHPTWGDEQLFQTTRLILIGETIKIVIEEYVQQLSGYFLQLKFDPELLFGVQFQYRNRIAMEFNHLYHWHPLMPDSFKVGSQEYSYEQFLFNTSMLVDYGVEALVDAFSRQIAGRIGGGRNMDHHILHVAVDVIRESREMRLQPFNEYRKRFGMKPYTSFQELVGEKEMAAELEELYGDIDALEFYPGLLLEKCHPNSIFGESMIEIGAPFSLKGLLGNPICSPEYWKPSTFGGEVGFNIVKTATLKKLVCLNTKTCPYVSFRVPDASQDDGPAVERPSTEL

SMILES	inhibition at 0.1 µM [1] [%]	inhibition at 0.1 µM [2] [%]	% Inhibition (0.1 μM) COX-1 [1] [%]	% Inhibition (0.1 μM) COX-2 [2] [%]
CCCc1ccc(-c2c(Cl)ncn2-c2ccc(S(C)(=O)=O)cc2)cc1 [Example 16, 4-Chloro-1-(4-methylsulfonylphenyl)-5-(4-propylphenyl)imidazole]	0	48		
COc1cc(-c2c(Cl)ncn2-c2ccc(S(N)(=O)=O)cc2)ccc1F [Example 11, 4-[4-Chloro-5-(4-fluoro-3-methoxyphenyl)imidazol-1-yl]benzenesulfonamide]	0	88		
COc1ccc(-c2c(Cl)ncn2-c2ccc(S(C)(=O)=O)cc2)cc1Cl [Example 5, 4-Chloro-5-(3-chloro-4-methoxyphenyl)-1-(4-methylsulfonylphenyl)imidazole]	17	92		
COc1c(Cl)cc(-c2c(Cl)ncn2-c2ccc(S(C)(=O)=O)cc2)cc1Cl [Example 8, 4-Chloro-5-(3,5-dichloro-4-methoxyphenyl)-1-(4-methylsulfonylphenyl)imidazole]	0	92		
CCOc1ccc(-c2c(Cl)ncn2-c2ccc(S(N)(=O)=O)cc2)cc1Cl [Example 13, 4-[4-Chloro-5-(3-chloro-4-ethoxyphenyl)imidazol-1-yl]benzenesulfonamide]	0	97		
COc1cc(-c2c(Cl)ncn2-c2ccc(S(C)(=O)=O)cc2)ccc1F [Example 2, 4-Chloro-5-(4-fluoro-3-methoxyphenyl)-1-(4-methylsulfonylphenyl)imidazole]	0	82		
COc1ccc(-c2c(Cl)ncn2-c2ccc(S(N)(=O)=O)cc2)cc1Cl [Example 14, 4-[4-Chloro-5-(3-chloro-4-methoxyphenyl)imidazol-1-yl]benzenesulfonamide]	8	87		
CCN(CC)c1ccc(-c2c(Cl)ncn2-c2ccc(S(C)(=O)=O)cc2)cc1 [Example 10, 4-Chloro-5-(4-N,N-diethylaminophenyl)-1-(4-methylsulfonylphenyl)imidazole]			0	64
COc1c(Cl)cc(-c2c(Cl)ncn2-c2ccc(S(N)(=O)=O)cc2)cc1Cl [Example 15, 4-[4-Chloro-5-(3,5-dichloro-4-methoxyphenyl)imidazol-1-yl]benzenesulfonamide Hydrochloride]	0	90		
CC(C)Oc1ccc(-c2c(Cl)ncn2-c2ccc(S(C)(=O)=O)cc2)cc1 [Example 1, 4-Chloro-5-(4-isopropoxyphenyl)-1-(4-methylsulfonylphenyl)imidazole]	0	52		
CCOc1ccc(-c2c(Cl)ncn2-c2ccc(S(C)(=O)=O)cc2)cc1Cl [Example 6, 4-Chloro-5-(3-chloro-4-ethoxyphenyl)-1-(4-methylsulfonylphenyl)imidazole]	0	87		
CS(=O)(=O)c1ccc(-n2cnc(Cl)c2-c2cc(F)cc(F)c2)cc1 [Example 4, 4-Chloro-5-(3,5-difluorophenyl)-1-(4-methylsulfonylphenyl)imidazole]	2	57		
CCOc1ccc(-c2c(Cl)ncn2-c2ccc(S(C)(=O)=O)cc2)cc1F [Example 3, 4-Chloro-5-(4-ethoxy-3-fluorophenyl)-1-(4-methylsulfonylphenyl)imidazole]	15	76		
CCOc1ccc(-c2c(Cl)ncn2-c2ccc(S(N)(=O)=O)cc2)cc1F [Example 12, 4-[4-Chloro-5-(4-ethoxy-3-fluorophenyl)imidazol-1-yl]benzenesulfonamide]	0	65		
CS(=O)(=O)c1ccc(-n2cnc(Cl)c2-c2ccc3c(c2)OCO3)cc1 [Example 7, 4-Chloro-5-[3,4-(methylenedioxy)phenyl]-1-(4-methylsulfonylphenyl)imidazole]			1	
CC(C)c1ccc(-c2c(Cl)ncn2-c2ccc(S(C)(=O)=O)cc2)cc1 [Example 9, 4-Chloro-5-(4-isopropylphenyl)-1-(4-methylsulfonylphenyl)imidazole]	0	82		
